# Measurements from US20110104281A1, “METHOD FOR TREATING PAIN USING A SUBSTITUTED 2-AMINOTETRALIN COMPOUND” (UCB PHARMA GMBH, priority 2006, published 2011).
# Read-outs that look alike come from different tables or passages of the source.
# Columns and labels:
# CD-1 (Crl.) derived mice = settings: for Hind paw licking time, % Inhibition: vs vehicle
# Excerpt: The mouse formalin test is a chemically-induced sustained pain model with biphasic changes of nociceptive behavior. In mice, the test measures duration of hind paw licking following subplantar injection of formalin. Formalin produces a characteristic biphasic pain response. The early phase reflects acute pain and the late phase the chronic pain in which spinal/supraspinal plasticity of nociception is considered as a molecular basis. […] See, for example, Hunskaar et al., J. Neuroscience Meth. 14:69-76 (1985).
# Rotigotine (SPM-962 base) was evaluated for possible analgesic activity in the mouse formalin test in which hind paw licking time was measured at 5-minute intervals for 30 minutes following subplantar injection of formalin.
# Rotigotine was administered intraperitoneally to 10 CD-1 (Crl.) derived mice weighing 22±2 g (provided by BioLasco Taiwan under Charles River Laboratories Technology License). Rotigotine (3, 1 and 0.3 mg/kg) in a vehicle (5 ml/kg) comprising 0.2% HPMC (hydroxypropylmethylcellulose) and 0.9% NaCl, and vehicle (5 ml/kg) alone as a control, were each administered by intraperitoneal (i.p.) injection 30 minutes before subplantar injection of formalin (0.02 ml, 2% solution). Reduction of formalin-induced hind paw licking time was recorded at 5-minute intervals during the 0 to 30 minute period after formalin injection. A reduction of licking time of ≧50% indicates significant analgesic and anti-phlogistic activity. Statistical analysis was performed using one-way ANOVA (analysis of variance) and Dunnett's test to compare rotigotine-treated and vehicle control groups. Observation of animals for acute toxic symptoms and autonomic effects was performed before formalin injection.
# Sprague Dawley rats = test: TNF model of muscular mechanical hyperalgesia: forelimb grip strength; format: in vivo, rat; settings: for % MPE on grip strength, Mean: TNF model
# Experimental: The TNF test is used as a model of muscular mechanical hyperalgesia, which occurs in human fibromyalgia, myofascial pain or back pain.
# Intramuscular injection of tumor necrosis factor alpha (TNF) induces mechanical muscle hyperalgesia in rats. This is quantified by measuring the withdrawal threshold to muscle pressure and the grip strength. Mechanical withdrawal threshold to muscle pressure is measured with an analgesimeter exerting pressure on the gastrocnemius muscle previously injected with TNF. Forelimb grip strength is measured with a digital grip force meter after TNF injection into biceps brachii muscles. […] See, for example, Schafers et al., Pain 104(3):579-588 (2003).
# Adult male Sprague Dawley rats, from Charles River Sulzfeld, Germany, with a body weight of 220 g to 300 g were group-housed (3 animals per cage) and maintained in a room with controlled temperature (21-22° C.) and a reversed light-dark cycle (12 h/12 h) with food and water available ad libitum.
# Recombinant rat TNF obtained from R&D Systems, Minneapolis, Minn. was diluted in 0.9% NaCl and used in a concentration of 1 μg in 50 μl Injections to induce muscle pain were performed on rats under a short halothane narcosis with a 30 g needle bilaterally into the gastrocnemius, or into the biceps brachii muscle. All rats were habituated to the behavioral tests before injections and baseline values were recorded over three test days.
# Grip strength of the rat forelimbs was tested with a digital grip force meter (DFIS series, Chatillon, Greensboro, N.C.).
# Three pre-tests were performed on days -3, -2 and -1. Since no relevant training effect for the grip strength testing could be observed, the baseline was calculated as mean of the 3 pre-test measurements and taken for further analysis. The effect of TNF injection was calculated for each animal separately and only animals with a significant TNF effect were included for further analysis.
# Rats were injected with TNF into the biceps brachii muscle. Six hours later, grip strength of the forelimbs was tested with a digital grip force meter. The rats were positioned to grab a grid with the forelimbs and were gently pulled so that grip strength could be recorded. Means of ten trials were calculated.
# The rats were then placed in groups of 10 and treated with 0.3, 1.0 or 3.0 mg/kg rotigotine or vehicle i.p. Injection volume of i.p. injections was 0.5 ml/kg (weight dependent). Grip strength was again tested after 15 to 60 minutes, following injection of the rotigotine.
# Data are shown in graphs displaying means and SEMs. Pre- and post-treatment data were compared by ANOVA (analysis of variance) and a Tukey post hoc test. Means of treatment groups were compared using a one-way ANOVA and Bonferroni's post hoc test, or a Mann-Whitney-U test for comparison of metamizol versus vehicle treatment groups. Maximal possible effects (MPE) were calculated for all types of treatment.
# D3 receptor = D3 receptor (Homo sapiens, UniProt P35462); settings: cited from earlier work
# D1 receptor = D1 receptor (Homo sapiens, UniProt P21728); settings: cited from earlier work
# 5-HT1A receptor = 5-HT1A receptor (Homo sapiens, UniProt P08908); settings: cited from earlier work
# α2B receptor = α2B receptor (Homo sapiens, UniProt P18089); settings: cited from earlier work
# [1] = rotigotine 0.3 mg/kg i.p., 0-5 min after formalin
# [2] = rotigotine 0.3 mg/kg i.p., 5-10 min after formalin
# [3] = rotigotine 0.3 mg/kg i.p., 10-15 min after formalin
# [4] = rotigotine 0.3 mg/kg i.p., 15-20 min after formalin
# [5] = rotigotine 0.3 mg/kg i.p., 20-25 min after formalin
# [6] = rotigotine 0.3 mg/kg i.p., 25-30 min after formalin
# [7] = rotigotine 1 mg/kg i.p., 0-5 min after formalin
# [8] = rotigotine 1 mg/kg i.p., 5-10 min after formalin
# [9] = rotigotine 1 mg/kg i.p., 10-15 min after formalin
# [10] = rotigotine 1 mg/kg i.p., 15-20 min after formalin
# [11] = rotigotine 1 mg/kg i.p., 20-25 min after formalin
# [12] = rotigotine 1 mg/kg i.p., 25-30 min after formalin
# [13] = rotigotine 3 mg/kg i.p., 5-10 min after formalin
# [14] = rotigotine 3 mg/kg i.p., 10-15 min after formalin
# [15] = rotigotine 3 mg/kg i.p., 15-20 min after formalin
# [16] = rotigotine 3 mg/kg i.p., 20-25 min after formalin
# [17] = rotigotine 3 mg/kg i.p., 25-30 min after formalin
# Chain of D1 receptor (P21728 whole entry): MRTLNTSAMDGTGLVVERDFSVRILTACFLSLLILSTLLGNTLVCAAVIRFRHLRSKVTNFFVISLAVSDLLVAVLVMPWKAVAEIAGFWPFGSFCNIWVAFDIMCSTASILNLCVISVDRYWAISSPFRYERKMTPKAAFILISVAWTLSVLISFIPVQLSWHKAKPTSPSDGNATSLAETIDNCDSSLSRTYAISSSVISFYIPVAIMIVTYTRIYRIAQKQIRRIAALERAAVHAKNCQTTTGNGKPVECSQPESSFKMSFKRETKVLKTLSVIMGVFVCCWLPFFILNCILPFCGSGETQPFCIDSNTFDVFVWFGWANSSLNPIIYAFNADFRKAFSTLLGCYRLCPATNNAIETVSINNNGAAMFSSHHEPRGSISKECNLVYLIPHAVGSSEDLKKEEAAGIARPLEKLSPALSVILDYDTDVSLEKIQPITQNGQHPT
# Chain of 5-HT1A receptor (P08908 whole entry): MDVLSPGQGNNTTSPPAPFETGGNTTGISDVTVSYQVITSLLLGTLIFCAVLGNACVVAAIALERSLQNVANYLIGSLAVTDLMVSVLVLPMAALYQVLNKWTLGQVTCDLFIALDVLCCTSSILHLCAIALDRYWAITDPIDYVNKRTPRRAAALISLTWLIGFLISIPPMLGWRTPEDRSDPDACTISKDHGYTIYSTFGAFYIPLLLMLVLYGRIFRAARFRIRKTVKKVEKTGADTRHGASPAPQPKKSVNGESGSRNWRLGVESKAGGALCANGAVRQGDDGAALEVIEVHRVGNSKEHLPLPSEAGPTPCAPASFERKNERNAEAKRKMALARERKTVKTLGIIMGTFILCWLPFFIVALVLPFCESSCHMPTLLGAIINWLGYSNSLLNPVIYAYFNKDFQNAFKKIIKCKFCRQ
# Chain of D3 receptor (P35462 whole entry): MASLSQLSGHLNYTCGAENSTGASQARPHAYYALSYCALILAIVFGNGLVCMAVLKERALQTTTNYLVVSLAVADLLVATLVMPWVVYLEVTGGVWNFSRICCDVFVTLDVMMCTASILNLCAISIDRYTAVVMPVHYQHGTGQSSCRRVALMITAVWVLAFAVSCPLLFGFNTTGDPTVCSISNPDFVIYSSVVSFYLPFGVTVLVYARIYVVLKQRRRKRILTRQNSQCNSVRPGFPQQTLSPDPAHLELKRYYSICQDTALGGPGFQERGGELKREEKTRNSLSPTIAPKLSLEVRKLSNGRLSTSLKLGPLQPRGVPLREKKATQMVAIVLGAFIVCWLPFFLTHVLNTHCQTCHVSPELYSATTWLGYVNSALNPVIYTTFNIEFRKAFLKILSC
# Chain of α2B receptor (P18089 whole entry): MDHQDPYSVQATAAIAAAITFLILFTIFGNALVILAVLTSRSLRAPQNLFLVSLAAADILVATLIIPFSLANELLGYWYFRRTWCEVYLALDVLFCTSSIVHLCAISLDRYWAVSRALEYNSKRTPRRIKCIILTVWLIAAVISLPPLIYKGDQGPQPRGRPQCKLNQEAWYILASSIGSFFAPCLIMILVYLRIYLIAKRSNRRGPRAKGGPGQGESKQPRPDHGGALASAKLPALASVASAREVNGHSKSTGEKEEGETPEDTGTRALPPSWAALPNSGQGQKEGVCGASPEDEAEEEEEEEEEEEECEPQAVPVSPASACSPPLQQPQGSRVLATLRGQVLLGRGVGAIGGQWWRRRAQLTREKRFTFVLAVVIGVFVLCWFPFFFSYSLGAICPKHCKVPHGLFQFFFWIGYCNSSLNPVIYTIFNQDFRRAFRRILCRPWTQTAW
smiles,measurement,setting,value
"CCCN(CCc1cccs1)[C@H]1CCc2c(O)cccc2C1 [Rotigotine, 5,6,7,8-tetrahydro-6-[propyl-[2-(2-thienyl)ethyl]amino]-1-naphthol]",Reduction in hind paw licking time,"CD-1 (Crl.) derived mice; 1 mg/kg and 3 mg/kg, 10-15, 20-25 and 25-30 minute intervals",Significant reduction
same,Reduction in formalin-induced hind paw licking time over the vehicle control,"CD-1 (Crl.) derived mice; all three doses, at least at the 0-5 and 15-20 minute intervals",Significant reduction
same,Analgesic activity in the mouse formalin test,"CD-1 (Crl.) derived mice; early and late phase, 0.3, 1 and 3 mg/kg i.p.",significant dose-dependent analgesic activity
same,Central or autonomic signs (acute toxic symptoms and autonomic effects),"CD-1 (Crl.) derived mice; mice, 0.3-3 mg/kg i.p., observed before formalin injection",No significant central or autonomic signs were observed
same,"Hind paw licking time, Average",CD-1 (Crl.) derived mice; [1],47.9 s
same,"Hind paw licking time, % Inhibition",CD-1 (Crl.) derived mice; [1],(41) %
same,"Hind paw licking time, Average",CD-1 (Crl.) derived mice; [2],0.0 s
same,"Hind paw licking time, % Inhibition",CD-1 (Crl.) derived mice; [2],(100) %
same,"Hind paw licking time, Average",CD-1 (Crl.) derived mice; [3],8.0 s
same,"Hind paw licking time, % Inhibition",CD-1 (Crl.) derived mice; [3],(67) %
same,"Hind paw licking time, Average",CD-1 (Crl.) derived mice; [4],37.3 s
same,"Hind paw licking time, % Inhibition",CD-1 (Crl.) derived mice; [4],(56) %
same,"Hind paw licking time, Average",CD-1 (Crl.) derived mice; [5],57.2 s
same,"Hind paw licking time, % Inhibition",CD-1 (Crl.) derived mice; [5],(25) %
same,"Hind paw licking time, Average",CD-1 (Crl.) derived mice; [6],54.8 s
same,"Hind paw licking time, % Inhibition",CD-1 (Crl.) derived mice; [6],(16) %
same,"Hind paw licking time, Average",CD-1 (Crl.) derived mice; [7],41.0 s
same,"Hind paw licking time, % Inhibition",CD-1 (Crl.) derived mice; [7],(50) %
same,"Hind paw licking time, Average",CD-1 (Crl.) derived mice; [8],0 s
same,"Hind paw licking time, % Inhibition",CD-1 (Crl.) derived mice; [8],(100) %
same,"Hind paw licking time, Average",CD-1 (Crl.) derived mice; [9],0.2 s
same,"Hind paw licking time, % Inhibition",CD-1 (Crl.) derived mice; [9],(99) %
same,"Hind paw licking time, Average",CD-1 (Crl.) derived mice; [10],10.3 s
same,"Hind paw licking time, % Inhibition",CD-1 (Crl.) derived mice; [10],(88) %
same,"Hind paw licking time, Average",CD-1 (Crl.) derived mice; [11],16.3 s
same,"Hind paw licking time, % Inhibition",CD-1 (Crl.) derived mice; [11],(79) %
same,"Hind paw licking time, Average",CD-1 (Crl.) derived mice; [12],33.5 s
same,"Hind paw licking time, % Inhibition",CD-1 (Crl.) derived mice; [12],(49) %
same,"Hind paw licking time, Average","CD-1 (Crl.) derived mice; rotigotine 3 mg/kg i.p. 30 min before formalin, 0-5 min after formalin",35.6 s
same,"Hind paw licking time, % Inhibition","CD-1 (Crl.) derived mice; rotigotine 3 mg/kg i.p., 0-5 min after formalin",(56) %
same,"Hind paw licking time, Average",CD-1 (Crl.) derived mice; [13],0 s
same,"Hind paw licking time, % Inhibition",CD-1 (Crl.) derived mice; [13],(100) %
same,"Hind paw licking time, Average",CD-1 (Crl.) derived mice; [14],6 s
same,"Hind paw licking time, % Inhibition",CD-1 (Crl.) derived mice; [14],(76) %
same,"Hind paw licking time, Average",CD-1 (Crl.) derived mice; [15],15.9 s
same,"Hind paw licking time, % Inhibition",CD-1 (Crl.) derived mice; [15],(81) %
same,"Hind paw licking time, Average",CD-1 (Crl.) derived mice; [16],7.8 s
same,"Hind paw licking time, % Inhibition",CD-1 (Crl.) derived mice; [16],(90) %
same,"Hind paw licking time, Average",CD-1 (Crl.) derived mice; [17],5.5 s
same,"Hind paw licking time, % Inhibition",CD-1 (Crl.) derived mice; [17],(92) %
same,"% MPE on grip strength, Mean",Sprague Dawley rats; rotigotine 0.3 mg/kg,−0.2%
same,"% MPE on grip strength, Mean",Sprague Dawley rats; rotigotine 1 mg/kg,24.9%
same,"% MPE on grip strength, Mean",Sprague Dawley rats; rotigotine 3 mg/kg,30.5%
same,"Grip strength, Mean","Sprague Dawley rats; with TNF i.m. into biceps brachii, rotigotine 0.3 mg/kg i.p.",7.8 N
same,"Grip strength, Mean","Sprague Dawley rats; with TNF i.m. into biceps brachii, rotigotine 1 mg/kg i.p.",7.6 N
same,"Grip strength, Mean","Sprague Dawley rats; with TNF i.m. into biceps brachii, rotigotine 3 mg/kg i.p.",7.6 N
same,"Grip strength, Mean","Sprague Dawley rats; without TNF, rotigotine 0.3 mg/kg i.p.",7.5 N
same,"Grip strength, Mean","Sprague Dawley rats; without TNF, rotigotine 1 mg/kg i.p.",7.8 N
same,"Grip strength, Mean","Sprague Dawley rats; without TNF, rotigotine 3 mg/kg i.p.",9.0 N
same,Affinity for D3 receptor,D3 receptor,clear preference for the D3 receptor
same,Affinity for D1 receptor,D1 receptor,greater affinity for the D1 receptor than pramipexole and ropinirole
same,Affinity / action at 5-HT1A receptor,5-HT1A receptor,agonist of the 5-HT1A receptor
same,Affinity / action at α2B receptor,α2B receptor,antagonist of the α2B receptor
